# Data published in patent publication US6762173B2 (priority 1997, dated 2004).
# Like-named read-outs stand apart in the source and are kept apart here.
# Legend:
# [1] = tested on: Phytophthora infestans; assay type: in vivo; conditions: potato Bintje, FIG. 4
# [2] = tested on: Uncinula necator; experiment: In vivo greenhouse test against powdery mildew of grapevine, read 22 days after contamination (Example 11); conditions: FIG. 8
# Description: (§1) In Vivo Greenhouse Test of a Composition Comprising Compound (I) and Compound (IIF) (Spiroxamine) Against Powdery Mildew of Grapevine (Uncinula necator):
# Example 10 is repeated, setting the compound (I)/spiroxamine ratio to 0.11:0.33 and 1 and observing the results 22 days after contamination.
# [3] = tested on: Phytophthora infestans; assay type: in vivo; conditions: potato Bintje, FIG. 1
# [4] = tested on: Botrytis cinerea; experiment: In vivo greenhouse test against grey rot of grapevine (Example 8); conditions: FIG. 5
# Method: In Vivo Greenhouse Test of a Composition Comprising Compound (I) and Compound (IIC) (Cyprodinil) Against Grey Rot of Grapevine (Botrytis cinerea):
# (§2) A 70% dispersible granule of compound (I) and a 75% dispersible granule of cyprodinil are used.
# (§3) Dilute suspensions corresponding to a spraying volume of 1000 l of spraying liquid per ha are prepared from these compositions by dilution with water.
# These 2 liquids are mixed together so as to obtain a compound (I)/cyprodinil ratio equal to 0.2.
# Grapevine plants (Chardonnay variety) are cultivated in pots. When these plants are 2 months old, they are treated by spraying with a liquid comprising one of the compounds (I) and (IIC), either individually or as a mixture in the ratio indicated above.
# After 24 hours, leaves are cut off the treated plants, placed on moistened filter paper in a Petri dish and are contaminated by applying 10 drops of an aqueous suspension of spores (containing 150,000 sp/cm^3) of Botrytis cinerea. […]
# For this, the number of drops of Botrytis cinerea suspension from which a grey mark, corresponding to attack by the phytopathogenic fungus, developed is counted for a grapevine leaf. […]
# (§4) The efficacy of the treatment (expressed in %) is calculated according to the so-called Abbott formula. […]
# [5] = tested on: Plasmopara viticola; experiment: In vivo greenhouse test on downy mildew of grapevine, preventive treatment at 4 days (Example 5); conditions: grapevine Chardonnay, FIG. 2
# Method: In Vivo Greenhouse Test of the Combination of Compound (I) with Compound (IIA), Propamocarb, on Plasmopara viticola (Downy Mildew of Grapevine) by Preventive Treatment at 4 Days:
# A soluble concentrate containing 722 g/l of propamocarb and a 70% dispersible granule of compound (I) are used.
# Dilute suspensions corresponding to a spraying volume of 500 l of spraying liquid per ha are prepared from these compositions by dilution with water.
# These 2 liquids are mixed together so as to obtain a ratio: compound (I)/propamocarb, equal to: 0.015−0.125−0.5.
# Cuttings of grapevine (Vitis vinifera), Chardonnay variety, are cultivated in pots. When these plants are 2 months old, they are treated by spraying with the above liquids, taken individually or as a mixture.
# After 4 days, each plant is contaminated by spraying with an aqueous suspension of spores of Plasmopara viticola obtained from sporulated leaves contaminated 7 days beforehand. […]
# The results are read 7 days after the contamination, by comparison with the control plants, that is to say untreated but contaminated plants.
# The surface area of leaves showing a whitish appearance on their underside, corresponding to attack by the fungus, is assessed visually and the degree of attack is obtained by dividing by the total foliar surface.
# The efficacy is then calculated using the Abbott formula and using the result on the control plant. […]
# [6] = tested on: Phytophthora infestans; assay type: in vivo; conditions: potato Bintje lamellae, preventive 4 days, FIG. 3
# [7] = tested on: Alternaria brassicae; experiment: In vivo greenhouse test against Alternaria rot in radish (Example 9); conditions: radish Pernot plantules, contamination 24 hours after treatment, FIG. 6
# Method: In Vivo Greenhouse Test of a Composition Comprising Compound (I) and Compound (IIC) (Cyprodinil) Against Alternaria Rot in Radish (Alternaria brassicae):
# as §2, §3
# These 2 liquids are mixed together so as to obtain a compound (I)/cyprodinil ratio equal to 0.2−0.5−1.
# Radish plantules (Pernot variety) are cultivated in pots. When these plantules have reached the 2-leaf cotyledon stage, they are treated by spraying with a liquid comprising compounds (I) and (IIC), either individually or as a mixture in the ratios indicated above.
# 24 hours after treatment, contamination is carried out by spraying with an aqueous suspension of spores (containing 40,000 sp/cm^3) of Alternaria brassicae.
# After this contamination, the treated and contaminated plantules are placed for 10 days at about 20° C. in an atmosphere of saturated humidity. […]
# For this, the percentage of attack of the cotyledon leaves by the fungus is assessed visually, the said attack being recognizable by brown necrosis marks. From the degree of attack thus obtained (expressed in %), the efficacy is calculated according to the Abbott formula with reference to the degree of attack of the control. […]
# [8] = tested on: Plasmopara viticola; experiment: In vivo greenhouse test of ternary composition against downy mildew of grapevine, treatment 24 h after contamination (Example 12); conditions: grapevine Chardonnay, compound (I) alone, FIG. 9
# [9] = tested on: Uncinula necator; experiment: In vivo greenhouse test against powdery mildew of grapevine (Example 10); conditions: FIG. 7
# Method: as §1
# A suspension of 60 mg comprising compound (I) in a liquid mixture consisting of 0.3 ml of a surfactant (oleate of polyoxyethylenated derivative of sorbitan) diluted to 10% in water and 60 ml of water is prepared.
# An emulsifiable concentrate containing 500 g/l of spiroxamine is used.
# Dilute suspensions corresponding to a spraying volume of 250 l of spraying liquid per ha are prepared from these compositions by dilution with water.
# These 2 liquids are mixed together so as to obtain a compound (I)/spiroxamine ratio equal to 0.33:1:3.
# Grapevine plants (Chardonnay variety) are cultivated in pots. When these plants are 2 months old, they are treated by spraying with a liquid comprising one of the compounds (I) and (IIF), either individually or as a mixture in one of the ratios indicated above.
# After 24 hours, the grapevine leaves are contaminated by dusting them with powdery mildew spores (Uncinula necator) obtained from naturally contaminated leaves.
# After this contamination, the treated and contaminated grapevine plants are placed for 15 days at 20° C. at a relative humidity of about 70%. […]
# as §4
# [10] = contamination 4 days after treatment
structure (smiles),measurement,setting,value
"CSC(=O)c1cccc2nnsc12 [CGA 245704, S-methyl ester of 1,2,3-benzothiadiazole-7-carbothioic acid]",efficacy when applied alone,[1]; under the test conditions,no efficacy
"CSC1=N[C@@](C)(c2ccccc2)C(=O)N1Nc1ccccc1 [compound (I), (4S)-4-methyl-2-methylthio-4-phenyl-1-phenyl-amino-2-imidazolin-5-one]",efficacy when applied alone,"[2]; grapevine, under the test conditions, 22 days",no efficacy
same,dose alone which needs to be applied to destroy 70% of the parasite,[1]; [10],177 mg/L
same,dose alone which needs to be applied to destroy 70% of the parasite,[3]; [10],36 mg/L
same,efficacy when applied alone,"[4]; grapevine leaves, under the test conditions",no efficacy
same,dose alone which needs to be applied to obtain 90% efficacy,[5]; preventive 4 days,8.2 mg/L
same,dose alone which needs to be applied to obtain 90% destruction of the parasite,[6],8.7 mg/L
same,dose alone which needs to be applied to obtain 70% destruction of the parasite,[7],167 mg/L
same,dose alone which needs to be applied to obtain 70% destruction of the parasite,[8],36 mg/L
same,efficacy when applied alone,"[9]; grapevine, under the test conditions",no efficacy
"Cc1cc(C2CC2)nc(Nc2ccccc2)n1 [cyprodinil, 2-phenylamino-4-cyclopropyl-6-methyl-pyrimidine]",dose alone which needs to be applied to destroy 90% of the parasite,"[4]; grapevine Chardonnay cut leaves, contamination 24 hours after treatment",73 mg/L
same,dose alone which needs to be applied to obtain 70% destruction of the parasite,[7],178 mg/L
"CCCOC(=O)NCCCN(C)C [propamocarb, propyl 3-(dimethylamino)propyl carbamate]",efficacy when applied alone,[5]; under the test conditions,no efficacy
same,dose alone which needs to be applied to obtain 90% destruction of the parasite,[6],553 mg/L
O=C([O-])c1ccccc1O.[Na+] [sodium salt of salicylic acid],efficacy when applied alone,[3]; under the test conditions,no efficacy
"CCCN(CC)CC1COC2(CCC(C(C)(C)C)CC2)O1 (centres unmarked) [spiroxamine, 8-t-butyl-2-(N-ethyl-N-n-propylamino)methyl-1,4-dioxaspiro[4.5]decane]",dose alone which needs to be applied to destroy 70% of the parasite,"[2]; grapevine Chardonnay, read 22 days after contamination",61 g/ha
same,dose alone which needs to be applied to destroy 70% of the parasite,"[9]; grapevine Chardonnay, read 15 days after contamination",6.6 g/ha
